From patent US20210253575A1, “PYRROLIDINE AMINE COMPOUNDS FOR THE TREATMENT OF AUTOIMMUNE DISEASE” (Hoffmann-La Roche Inc., priority 2018, published 2021)

These compounds were tested against T1, human TLR9 (Homo sapiens, UniProt Q9NR96) (assay: HEK293-Blue-hTLR-9 cells assay (SEAP reporter, ODN2006 stimulation)). Conditions: HEK293-Blue-hTLR9 cells, ODN2006 ligand, 20 hrs incubation.
T1 sequence (Q9NR96 26-1032): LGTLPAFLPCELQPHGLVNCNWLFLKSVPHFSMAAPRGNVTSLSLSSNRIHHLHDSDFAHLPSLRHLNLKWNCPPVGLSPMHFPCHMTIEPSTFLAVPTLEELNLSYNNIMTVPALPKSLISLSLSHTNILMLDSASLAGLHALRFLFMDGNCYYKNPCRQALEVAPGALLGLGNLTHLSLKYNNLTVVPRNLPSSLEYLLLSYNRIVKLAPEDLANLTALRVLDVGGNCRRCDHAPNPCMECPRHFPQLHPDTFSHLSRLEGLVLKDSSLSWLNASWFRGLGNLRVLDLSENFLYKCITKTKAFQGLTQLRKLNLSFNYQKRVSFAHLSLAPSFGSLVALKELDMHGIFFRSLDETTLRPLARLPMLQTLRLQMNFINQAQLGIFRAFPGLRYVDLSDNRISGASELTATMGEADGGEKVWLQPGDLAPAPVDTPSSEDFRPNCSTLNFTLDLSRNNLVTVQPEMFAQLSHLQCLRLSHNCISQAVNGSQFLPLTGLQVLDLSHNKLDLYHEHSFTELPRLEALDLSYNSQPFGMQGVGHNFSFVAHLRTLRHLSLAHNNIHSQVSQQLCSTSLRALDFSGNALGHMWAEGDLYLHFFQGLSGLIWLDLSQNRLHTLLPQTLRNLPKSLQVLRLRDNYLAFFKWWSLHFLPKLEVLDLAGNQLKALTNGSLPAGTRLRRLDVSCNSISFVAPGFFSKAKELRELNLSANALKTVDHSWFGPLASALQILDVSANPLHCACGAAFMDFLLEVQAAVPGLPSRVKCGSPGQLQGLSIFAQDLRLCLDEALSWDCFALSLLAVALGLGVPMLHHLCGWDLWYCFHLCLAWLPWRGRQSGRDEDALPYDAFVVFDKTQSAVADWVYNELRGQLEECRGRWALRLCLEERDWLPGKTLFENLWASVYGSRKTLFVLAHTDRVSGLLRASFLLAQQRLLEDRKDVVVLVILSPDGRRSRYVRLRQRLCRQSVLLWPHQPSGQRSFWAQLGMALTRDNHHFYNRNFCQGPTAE
Format: cell-based
Protocol: The following tests were carried out in order to determine the activity of the compounds of formula (I) in HEK293-Blue-hTLR-7/8/9 cells assay.
HEK293-Blue-hTLR-9 Cells Assay:
A stable HEK293-Blue-hTLR-9 cell line was purchased from InvivoGen (Cat. #: hkb-htlr9, San Diego, Calif., USA). These cells were originally designed for studying the stimulation of human TLR9 by monitoring the activation of NF-κB. A SEAP (secreted embryonic alkaline phosphatase) reporter gene was placed under the control of the IFN-β minimal promoter fused to five NF-κB and AP-1-binding sites. The SEAP was induced by activating NF-κB and AP-1 via stimulating HEK-Blue hTLR9 cells with TLR9 ligands. Therefore the reporter expression was declined by TLR9 antagonist under the stimulation of a ligand, such as ODN2006 (Cat. #: tlrl-2006-1, Invivogen, San Diego, Calif., USA), for incubation of 20 hrs. The cell culture supernatant SEAP reporter activity was determined using QUANTI-Blue™ kit (Cat. #: rep-qb1, Invivogen, San Diego, Calif., USA) at a wavelength of 640 nm, a detection medium that turns purple or blue in the presence of alkaline phosphatase.
HEK293-Blue-hTLR9 cells were incubated at a density of 250,000˜450,000 cells/mL in a volume of 170 μL in a 96-well plate in Dulbecco's Modified Eagle's medium (DMEM) containing 4.5 g/L glucose, 50 U/mL penicillin, […], […], 2 mM L-glutamine, 10% (v/v) heat-inactivated fetal bovine serum with addition of 20 μL test compound in a serial dilution in the presence of final DMSO at 1% and 10 μL of 20 uM ODN2006 in above DMEM, perform incubation under 37° C. in a CO2incubator for 20 hrs. Then 20 μL of the superatant from each well was incubated with 180 μL Quanti-blue substrate solution at 37° C. for 2 hrs and the absorbance was read at 620˜655 nm using a spectrophotometer. The signalling pathway that TLR9 activation leads to downstream NF-κB activation has been widely accepted, and therefore similar reporter assay was modified for evaluating TLR9 antagonist.

| SMILES | IC50 |
| --- | --- |
| CC1(N)CCN(C[C@H]2CN(c3ccc(C#N)c4nccnc34)C[C@@H]2C(F)(F)F)CC1 [Example 12, 8-[(3S,4R)-3-[(4-amino-4-methyl-1-piperidyl)methyl]-4-(trifluoromethyl)pyrrolidin-1-yl]quinoxaline-5-carbonitrile] | 219 nM |
| FC(F)(F)c1ccc(N2CC(CN3C[C@H]4CNC[C@H]4C3)C3(CC3)C2)c2nccnc12 (stereo partly drawn) [Example 41, 5-[7-[[(3aR,6aS)-2,3,3a,4,6,6a-hexahydro-H-pyrrolo[3,4-c]pyrrol-5-yl]methyl]-5-azaspiro[2.4]heptan-5-yl]-8-(trifluoromethyl)quinoxaline] | 1200 nM |
| CC[C@@H]1CN(c2ccc(C#N)c3ncccc23)C[C@H]1CN1CCC2(CCNCC2)CC1 (relative stereo) [Example 15, 5-[Trans-3-(3,9-diazaspiro[5.5]undecan-3-ylmethyl)-4-ethyl-pyrrolidin-1-yl]quinoline-8-carbonitrile] | 32 nM |
| N#Cc1ccc(N2C[C@H](CN3CCC(N4CCCCCC4)CC3)[C@@H](C(F)(F)F)C2)c2nccnc12 [Example 62, 8-[(3S,4R)-3-[[4-(Azepan-1-yl)-1-piperidyl]methyl]-4-(trifluoromethyl)pyrrolidin-1-yl]quinoxaline-5-carbonitrile] | 409 nM |
| N#Cc1ccc(N2CC(CN3C[C@H]4CNC[C@H]4C3)C3(CC3)C2)c2nccnc12 (stereo partly drawn) [Example 18, 8-[7-[[(3aR,6aS)-2,3,3a,4,6,6a-hexahydro-H-pyrrolo[3,4-c]pyrrol-5-yl]methyl]-5-azaspiro[2.4]heptan-5-yl]quinoxaline-5-carbonitrile] | 97 nM |
| N#Cc1ccc(N2C[C@H](CN3CCC4(CCCNC4)C3)[C@@H](C(F)(F)F)C2)c2cccnc12 (stereo partly drawn) [Example 6, 5-[(3S,7R)-3-(2,9-diazaspiro[4.5]decan-2-ylmethyl)-4-(trifluoromethyl)pyrrolidin-1-yl]quinoline-8-carbonitrile] | 136 nM |
| N#Cc1ccc(N2CC(CN3CCC4(CC3)CNCCO4)C3(CC3)C2)c2nccnc12 (centres unmarked) [Example 49, 8-[7-(1-Oxa-4,9-diazaspiro[5.5]undecan-9-ylmethyl)-5-azaspiro[2.4]heptan-5-yl]quinoxaline-5-carbonitrile] | 87 nM |
| N#Cc1ccc(N2CC(CN3CCC(N)CC3)C3(CC3)C2)c2nccnc12 (single isomer, unassigned) [Example 68A, 8-[7-[(4-Amino-1-piperidyl)methyl]-5-azaspiro[2.4]heptan-5-yl]quinoxaline-5-carbonitrile] | 71 nM |
| N#Cc1ccc(N2CC(CN3CCC4(CCCNC4)C3)C3(CC3)C2)c2nccnc12 (centres unmarked) [Example 22, 8-[7-(2,9-Diazaspiro[4.5]decan-2-ylmethyl)-5-azaspiro[2.4]heptan-5-yl]quinoxaline-5-carbonitrile] | 153 nM |
| N#Cc1ccc(N2CC(CN3CCC4(CCCCN4)CC3)C3(CC3)C2)c2nccnc12 (centres unmarked) [Example 65, 8-[7-(1,9-Diazaspiro[5.5]undecan-9-ylmethyl)-5-azaspiro[2.4]heptan-5-yl]quinoxaline-5-carbonitrile] | 68 nM |
| N#Cc1ccc(N2C[C@H](CN3C4CCC3CC(N)C4)[C@@H](C(F)(F)F)C2)c2nccnc12 (stereo partly drawn) [Example 63, 8-[(3S,4R)-3-[(3-amino-8-azabicyclo[3.2.1]octan-8-yl)methyl]-4-(trifluoromethyl)pyrrolidin-1-yl]quinoxaline-5-carbonitrile] | 294 nM |
| N#Cc1ccc(N2C[C@H](CN3CCC(N4CCCC4)CC3)[C@@H](C(F)(F)F)C2)c2nccnc12 [Example 60, 8-[(3S,4R)-3-[(4-Pyrrolidin-1-yl-1-piperidyl)methyl]-4-(trifluoromethyl)pyrrolidin-1-yl]quinoxaline-5-carbonitrile] | 509 nM |
| N#Cc1ccc(N2C[C@H](CN3CCC4(CC3)CNCCO4)[C@@H](C(F)(F)F)C2)c2nccnc12 [Example 70, 8-[(3S,4R)-3-(1-oxa-4,9-diazaspiro[5.5]undecan-9-ylmethyl)-4-(trifluoromethyl)pyrrolidin-1-yl]quinoxaline-5-carbonitrile] | 253 nM |
| CNCC1CCN(C[C@H]2CN(c3ccc(C#N)c4nccnc34)C[C@@H]2C(F)(F)F)CC1 [Example 81, 8-[(3S,4R)-3-[[4-(methylaminomethyl)-1-piperidyl]methyl]-4-(trifluoromethyl)pyrrolidin-1-yl]quinoxaline-5-carbonitrile] | 218 nM |
| FC(F)(F)c1ccc(N2CC(CN3CCNCC3)C3(CC3)C2)c2nccnc12 (centres unmarked) [Example 20, 5-[7-(Piperazin-1-ylmethyl)-5-azaspiro[2.4]heptan-5-yl]-8-(trifluoromethyl)quinoxaline] | 5640 nM |
| N#Cc1ccc(N2C[C@H](CN3CCC4(CCNCC4)CC3)[C@@H](C(F)(F)F)C2)c2nccnc12 [Example 1, 8-[(3S,4R)-3-(3,9-diazaspiro[5.5]undecan-3-ylmethyl)-4-(trifluoromethyl)pyrrolidin-1-yl]quinoxaline-5-carbonitrile] | 106 nM |
| N#Cc1ccc(N2CC(CN3CCC4(CCNCC4)CC3)C3(CC3)C2)c2nccnc12 (centres unmarked) [Example 16, 8-[7-(3,9-Diazaspiro[5.5]undecan-3-ylmethyl)-5-azaspiro[2.4]heptan-5-yl]quinoxaline-5-carbonitrile] | 50 nM |
| N#Cc1ccc(N2C[C@H](CN3CC4(CCNCC4)C3)[C@@H](C(F)(F)F)C2)c2nccnc12 [Example 48, 8-[(3S,4R)-3-(2,7-diazaspiro[3.5]nonan-2-ylmethyl)-4-(trifluoromethyl)pyrrolidin-1-yl]quinoxaline-5-carbonitrile] | 97 nM |
| N#Cc1ccc(N2CC(CN3CCOC4(CCNCC4)C3)C3(CC3)C2)c2nccnc12 (centres unmarked) [Example 67, 8-[7-(1-Oxa-4,9-diazaspiro[5.5]undecan-4-ylmethyl)-5-azaspiro[2.4]heptan-5-yl]quinoxaline-5-carbonitrile] | 869 nM |
| CC1(CN)CCCN(C[C@H]2CN(c3ccc(C#N)c4nccnc34)C[C@@H]2C(F)(F)F)C1 (stereo partly drawn) [Example 75, 8-[(3S,4R)-3-[[3-(aminomethyl)-3-methyl-1-piperidyl]methyl]-4-(trifluoromethyl)pyrrolidin-1-yl]quinoxaline-5-carbonitrile] | 767 nM |
| N#Cc1ccc(N2C[C@H](CN3CC4(CC(N)C4)C3)[C@@H](C(F)(F)F)C2)c2cccnc12 [Example 53, 5-[(3S,4R)-3-[(6-Amino-2-azaspiro[3.3]heptan-2-yl)methyl]-4-(trifluoromethyl)pyrrolidin-1-yl]quinoline-8-carbonitrile] | 219 nM |
| N#Cc1ccc(N2CC(CN3CCC4(CCNCC4)C3)C3(CC3)C2)c2nccnc12 (centres unmarked) [Example 32, 8-[7-(2,8-Diazaspiro[4.5]decan-2-ylmethyl)-5-azaspiro[2.4]heptan-5-yl]quinoxaline-5-carbonitrile] | 80 nM |
| N#Cc1ccc(N2C[C@H](CNC3CCNCC3)[C@@H](C(F)(F)F)C2)c2nccnc12 [Example 71, 8-[(3S,4R)-3-[(4-piperidylamino)methyl]-4-(trifluoromethyl)pyrrolidin-1-yl]quinoxaline-5-carbonitrile] | 87 nM |
